{"source": "patent US8435981B2", "about": "“2-(heterocyclylbenzyl)pyridazinone derivatives” (Merck Patent Gesellschaft mit Beschränkter Haftung, priority 2006, dated 2013)", "data": [{"target": "T1, Met kinase (Homo sapiens, UniProt P08581)", "test": "Met kinase inhibition, enzyme assay (flashplate method)", "format": "biochemical", "design": "6His (N); purchased Upstate 14-526; host or cells: Sf21 insect cells (S. frugiperda), baculovirus", "protocol": "Flashplate Method (Met Kinase)\nThe test plates used are 96-well Flashplate® microtitre plates from Perkin Elmer (Cat. No. SMP200). The components of the kinase reaction described below are pipetted into the assay plate. The Met kinase and the substrate poly Ala-Glu-Lys-Tyr, (pAGLT, 6:2:5:1), are incubated for 3 hrs at room temperature with radioactively labelled ^33P-ATP in the presence and absence of test substances in a total volume of 100 μl. The reaction is terminated using 150 μl of a 60 mM EDTA solution. After incubation for a further 30 min at room temperature, the supernatants are filtered off with suction, and the wells are washed three times with 200 μl of 0.9% NaCl solution each time. The measurement of the bound radioactivity is carried out by means of a scintillation measuring instrument (Topcount NXT, Perkin-Elmer).\nThe full value used is the inhibitor-free kinase reaction. This should be approximately in the range 6000-9000 cpm. The pharmacological zero value used is staurosporin in a final concentration of 0.1 mM. The inhibitory values (IC50) are determined using the RS1_MTS program.\nKinase reaction conditions per well:\n10 μl of substance to be tested in assay buffer with 10% of DMSO\n10 μl of ATP (final concentration 1 μM cold, 0.35 μCi of ^33P-ATP)\n50 μl of Met kinase/substrate mixture in assay buffer;", "units": {"IC50": "nM"}, "values": [{"smiles": "O=c1ccc(-c2cc(F)cc(F)c2)nn1Cc1cccc(-c2noc(NCCN3CCOCC3)n2)c1", "note": "[Compound A22]", "IC50": "10 to 1000"}, {"smiles": "COCCN1CCN(c2nc(-c3cccc(Cn4nc(-c5cc(F)cc(F)c5)ccc4=O)c3)no2)CC1", "note": "[Compound A50, 6-(3,5-Difluorophenyl)-2-(3-{5-[4-(2-methoxyethyl)-piperazin-1-yl]-1,2,4-oxadiazol-3-yl}benzyl)-2H-pyridazin-3-one]", "IC50": "10 to 1000"}, {"smiles": "CN(C)CCCNc1nc(-c2cccc(Cn3nc(-c4cc(F)cc(F)c4)ccc3=O)c2)no1", "note": "[Compound A12, 6-(3,5-difluorophenyl)-2-{3-[5-(3-dimethylaminopropylamino)-1,2,4-oxadiazol-3-yl]benzyl}-2H-pyridazin-3-one]", "IC50": "10 to 1000"}, {"smiles": "CN1CCN(c2nc(-c3cccc(Cn4nc(-c5cc(F)cc(F)c5)ccc4=O)c3)no2)CC1", "note": "[Compound A20, 6-(3,5-difluorophenyl)-2-{3-[5-(4-methylpiperazin-1-yl)-1,2,4-oxadiazol-3-yl]benzyl}-2H-pyridazin-3-one]", "IC50": "10 to 1000"}, {"smiles": "CN1CCC(c2cnc(-c3cccc(Cn4nc(-c5cc(F)cc(F)c5)ccc4=O)c3)o2)CC1", "note": "[Compound A88, 6-(3,5-difluorophenyl)-2-{3-[5-(1-methylpiperidin-4-yl)oxazol-2-yl]benzyl}-2H-pyridazin-3-one]", "IC50": "10 to 1000"}, {"smiles": "Cc1nc(-c2cccc(Cn3nc(-c4cc(F)cc(F)c4)ccc3=O)c2)no1", "note": "[Compound A1, 6-(3,5-difluorophenyl)-2-[3-(5-methyl-1,2,4-oxadiazol-3-yl)benzyl]-2H-pyridazin-3-one]", "IC50": "10 to 1000"}, {"smiles": "Cc1cnc(-c2cccc(Cn3nc(-c4cccc(Cl)c4)ccc3=O)c2)o1", "note": "[Compound A33]", "IC50": "10 to 1000"}, {"smiles": "CCNc1nc(-c2cccc(Cn3nc(-c4cc(F)cc(F)c4)ccc3=O)c2)no1", "note": "[Compound A11, 6-(3,5-difluorophenyl)-2-[3-(5-ethylamino-1,2,4-oxadiazol-3-yl)benzyl]-2H-pyridazin-3-one]", "IC50": "10 to 1000"}, {"smiles": "CN1CCC(N(C)c2nc(-c3cccc(Cn4nc(-c5cc(F)cc(F)c5)ccc4=O)c3)no2)CC1", "note": "[Compound A46, 6-(3,5-difluorophenyl)-2-(3-{5-[methyl-(1-methylpiperidin-4-yl)-amino]-1,2,4-oxadiazol-3-yl}benzyl)-2H-pyridazin-3-one]", "IC50": "10 to 1000"}, {"smiles": "O=c1ccc(-c2cc(F)cc(F)c2)nn1Cc1cccc(-c2ncc(C3CCNCC3)s2)c1", "note": "[Compound A91, 6-(3,5-difluorophenyl)-2-[3-(5-piperidin-4-ylthiazol-2-yl)benzyl]-2H-pyridazin-3-one]", "IC50": "10 to 1000"}, {"smiles": "CN1CCN(C(=O)c2nc(-c3cccc(Cn4nc(-c5cc(F)cc(F)c5)ccc4=O)c3)no2)CC1", "note": "[Compound A21, 6-(3,5-difluorophenyl)-2-{3-[5-(4-methylpiperazine-1-carbonyl)-1,2,4-oxadiazol-3-yl]benzyl}-2H-pyridazin-3-one]", "IC50": "10 to 1000"}, {"smiles": "CCN1CCN(c2nc(-c3cccc(Cn4nc(-c5cc(F)cc(F)c5)ccc4=O)c3)no2)CC1", "note": "[Compound A48]", "IC50": "10 to 1000"}]}, {"target": "T1, Met kinase", "test": "Met kinase inhibition, cell assay", "format": "cell-based", "units": {"IC50": "nM"}, "values": [{"smiles": "O=c1ccc(-c2cc(F)cc(F)c2)nn1Cc1cccc(-c2noc(N3CCN(CCO)CC3)n2)c1", "note": "[Compound A111, 6-(3,5-difluorophenyl)-2-(3-{5-[4-(2-hydroxyethyl)piperazin-1-yl]-1,2,4-oxadiazol-3-yl}benzyl)-2H-pyridazin-3-one]", "IC50": "10 to 1000"}, {"smiles": "COCCCN1CCN(c2nc(-c3cccc(Cn4nc(-c5cc(F)cc(F)c5)ccc4=O)c3)no2)CC1", "note": "[Compound A124, 6-(3,5-Difluorophenyl)-2-(3-{5-[4-(3-methoxypropyl)-piperazin-1-yl]-1,2,4-oxadiazol-3-yl}benzyl)-2H-pyridazin-3-one]", "IC50": "10 to 1000"}, {"smiles": "CCOCCN1CCN(c2nc(-c3cccc(Cn4nc(-c5cc(F)cc(F)c5)ccc4=O)c3)no2)CC1", "note": "[Compound A123, 6-(3,5-Difluorophenyl)-2-(3-{5-[4-(2-ethoxyethyl)-piperazin-1-yl]-1,2,4-oxadiazol-3-yl}benzyl)-2H-pyridazin-3-one]", "IC50": "10 to 1000"}]}]}
